In patent US6274616A, “N,N-diethylglycolamido ester prodrugs of indole sPLA2 inhibitors” (Eli Lilly and Company, priority 2000, dated 2001):

Columns and labels:
[1] = target: recombinant human secreted phospholipase A2; settings: cited from earlier work
[2] = target: recombinant human secreted phospholipase A2; settings: guinea pig lung tissue; data from U.S. Pat. No. 5,654,326; read-out: Tissue test secreted PLA2 Apparent KB; cited from earlier work
[3] = Assay III: Rat Plasma Pharmacokinetics Study (oral bioavailability); type: in vivo, Rat (Fischer 344)
Description: The bioavailability of the compound of the invention, ((3-(2-amino-1,2-dioxoethyl)-1-((1,1'-biphenyl)-3-ylmethyl)-2-methyl-1H-indol-4-yl)oxy)acetic acid N,N-diethylglycolamido ester, was determined using a Rat Plasma Pharmacokinetics Study:
The purpose of this assay was to evaluate and compare the oral delivery for selected sPLA2 inhibitors.
The amount of sPLA2 inhibitor was corrected for free acid equivalents.
Suspension of sPLA2 inhibitor in 10% Acacia, prepared just prior to dose administration
Dose: 10 mg/kg (of the parent acid)
Blood samples (0.8 ml) were obtained at the following times: 0.5, 1, 2, 4, 8 and 24 hours (2 rats/timepoint)
Plasma was assayed by HPLC to measure concentrations of the different sPLA2 inhibitors (as free acids).
Cmax (maximal plasma concentrations), and AUC values were determined from the mean plasma concentration-time profiles.

| SMILES | IC50 ([1]; chromogenic assay, 3-4 tests, data from U.S. Pat. No. 5,654,326, read-out: Inhibition of human secreted PLA2 IC50 ± mean deviation (3-4 tests)) | inhibiting sPLA2 (conclusion in words) ([1]; conclusion of Assay 1, Table I) | Kb [2] | oral bioavailability compared with other esters (in words) ([3]; conclusion from Table 3) | oral bioavailability compared with other esters (in words) ([3]; conclusion from Table 3, listed as compound of formula (I)) |
| --- | --- | --- | --- | --- | --- |
| Cc1c(C(=O)C(N)=O)c2c(OCC(=O)O)cccc2n1Cc1cccc(-c2ccccc2)c1 [Compound of formula (II), ((3-(2-amino-1,2-dioxoethyl)-1-((1,1'-biphenyl)-3-ylmethyl)-2-methyl-1H-indol-4-yl)oxy)acetic acid] | 4.33 ± 2.31 nM | highly active in inhibiting sPLA2 | 57 ± 11 nM |  |  |
| CCN(CC)C(=O)COC(=O)COc1cccc2c1c(C(=O)C(N)=O)c(C)n2Cc1cccc(-c2ccccc2)c1 [N,N-diethylglycolamido, ((3-(2-amino-1,2-dioxoethyl)-1-((1,1'-biphenyl)-3-ylmethyl)-2-methyl-1H-indol-4-yl)oxy)acetic acid N,N-diethylglycolamido ester] |  |  |  | unexpectedly more bioavailable than many other esters of the sPLA2 inhibitor | highly bioavailable upon oral administration compared to other common ester type prodrugs |
